Values joined by “and” are separate entries in the source; they are usually repeats but may differ in a detail not shown here. Equal values may be shown once.
System: Lactobacillus acidophilus
Test: Recovery from Acidophilus milk fortified with MSM into broth without MSM
Assay type: cell-based
Conditions: for Lag Recovery of Lactobacillus acidophilus in Milk fortified with MSM Day 7: 5% MSM; for Lag Recovery of Lactobacillus acidophilus in Milk fortified with MSM Day 7 / Lag Recovery of Lactobacillus acidophilus in Milk fortified with MSM Day 14 / Lag Recovery of Lactobacillus acidophilus in Milk fortified with MSM Day 28: duplicates; for Recovery of Lactobacillus acidophilus in Milk fortified with MSM Day 14, initial start data: Day 14-0
Description: The Acidophilus milk was low fat (Darigold). […] All preparations and plating was conducted at room temperature.
The recovery study was run parallel to the study done on the affects of MSM on growth of Lactobacillus acidophilus in Acidophilus milk fortified with MSM. The recovery growth rate was analyzed on Day 7, Day 14, Day 21 and Day 28. For Table 27, the growth for Day x with no time is calculated from the initial growth study with the dilution factor into the log growth. […] Table 28 takes the value of 2.00 as the starting value.

Methylsulfonylmethane [MSM]
Lag Recovery of Lactobacillus acidophilus in Milk fortified with MSM Day 7 (Day 7-24): 12.12 logs and 13.29 logs
Recovery of Lactobacillus acidophilus in Milk fortified with MSM Day 7, average recovery (5.0% MSM, Day 7-48): 13.17 logs
Lag Recovery of Lactobacillus acidophilus in Milk fortified with MSM Day 7 (Day 7-48): 13.09 logs and 13.25 logs
Recovery of Lactobacillus acidophilus in Milk fortified with MSM Day 7, average recovery (5.0% MSM, Day 7-72): 12.99 logs
Lag Recovery of Lactobacillus acidophilus in Milk fortified with MSM Day 7 (Day 7-72): 13.1 logs and 12.87 logs
recovery log growth lower than the control (5.0% MSM, Day 14, first 24 hours): 1.02 logs
Recovery of Lactobacillus acidophilus in Milk fortified with MSM Day 14, initial start data (5.0% MSM): 6.04 logs
Recovery of Lactobacillus acidophilus in Milk fortified with MSM Day 14, average recovery (5.0% MSM, Day 14-24): 9.60 logs
Lag Recovery of Lactobacillus acidophilus in Milk fortified with MSM Day 14 (5.0% MSM, Day 14-24): 9.6 logs
Recovery of Lactobacillus acidophilus in Milk fortified with MSM Day 14, average recovery (5.0% MSM, Day 14-48): 13.02 logs
Lag Recovery of Lactobacillus acidophilus in Milk fortified with MSM Day 14 (5.0% MSM, Day 14-48): 12.99 logs and 13.04 logs
Recovery of Lactobacillus acidophilus in Milk fortified with MSM Day 14, average recovery (5.0% MSM, Day 14-72): 12.43 logs
Lag Recovery of Lactobacillus acidophilus in Milk fortified with MSM Day 14 (5.0% MSM, Day 14-72): 12.65 logs and 12.21 logs
Recovery of Lactobacillus acidophilus in Milk fortified with MSM Day 21, initial start data (5.0% MSM): 3.56 logs
Recovery of Lactobacillus acidophilus in Milk fortified with MSM Day 21, average recovery (5.0% MSM, Day 21-24): 9.69 logs
Recovery of Lactobacillus acidophilus in Milk fortified with MSM Day 21, average recovery (5.0% MSM, Day 21-48): 13.08 logs
Recovery of Lactobacillus acidophilus in Milk fortified with MSM Day 21, average recovery (5.0% MSM, Day 21-72): 13.15 logs
Recovery of Lactobacillus acidophilus in Milk fortified with MSM Day 28, initial start data (5.0% MSM): 0.52 logs
Recovery of Lactobacillus acidophilus in Milk fortified with MSM Day 28, average recovery (5.0% MSM, Day 28-24): 5.56 logs
Lag Recovery of Lactobacillus acidophilus in Milk fortified with MSM Day 28 (5.0% MSM, Day 28-24): 5.64 logs and 5.48 logs
Recovery of Lactobacillus acidophilus in Milk fortified with MSM Day 28, average recovery (5.0% MSM, Day 28-48): 12.87 logs
Lag Recovery of Lactobacillus acidophilus in Milk fortified with MSM Day 28 (5.0% MSM, Day 28-48): 12.58 logs and 13.16 logs
Recovery of Lactobacillus acidophilus in Milk fortified with MSM Day 28, average recovery (5.0% MSM, Day 28-72): 12.48 logs
Lag Recovery of Lactobacillus acidophilus in Milk fortified with MSM Day 28 (5.0% MSM, Day 28-72): 12.49 logs and 12.47 logs
Day 7 log recovery growth rate increase from start time of zero (5.0% MSM, Hour 0): 0.00 logs
Day 14 log recovery growth rate increase from start time of zero (5.0% MSM, Hour 0): 0.00 logs
Day 21 log recovery growth rate increase from start time of zero (5.0% MSM, Hour 0): 0.00 logs
Day 7 log recovery growth rate increase from start time of zero (5.0% MSM, Hour 24): 4.00 logs
Day 14 log recovery growth rate increase from start time of zero (5.0% MSM, Hour 24): 3.56 logs
Day 21 log recovery growth rate increase from start time of zero (5.0% MSM, Hour 24): 6.13 logs
Day 7 log recovery growth rate increase from start time of zero (5.0% MSM, Hour 48): 0.47 logs
Day 14 log recovery growth rate increase from start time of zero (5.0% MSM, Hour 48): 3.42 logs
Day 21 log recovery growth rate increase from start time of zero (5.0% MSM, Hour 48): 3.39 logs
Day 7 log recovery growth rate increase from start time of zero (5.0% MSM, Hour 72): −0.19 logs
Day 14 log recovery growth rate increase from start time of zero (5.0% MSM, Hour 72): −0.59 logs
Day 21 log recovery growth rate increase from start time of zero (5.0% MSM, Hour 72): 0.08 logs
Day 28 log recovery growth rate increase from start time of zero (5.0% MSM, Time 0): 0.00 logs
Day 28 log recovery growth rate increase from start time of zero (5.0% MSM, Time 24): 5.04 logs
Day 28 log recovery growth rate increase from start time of zero (5.0% MSM, Time 48): 7.31 logs
Day 28 log recovery growth rate increase from start time of zero (5.0% MSM, Time 72): −0.39 logs
Recovery of Lactobacillus acidophilus in Milk fortified with MSM Day 7, initial start data ([…] MSM, Day 7): 8.50 logs
Recovery of Lactobacillus acidophilus in Milk fortified with MSM Day 7, average recovery ([…] MSM, Day 7-24): 13.16 logs
Recovery of Lactobacillus acidophilus in Milk fortified with MSM Day 7, average recovery ([…] MSM, Day 7-48): 12.36 logs
Recovery of Lactobacillus acidophilus in Milk fortified with MSM Day 7, average recovery ([…] MSM, Day 7-72): 12.60 logs
Recovery of Lactobacillus acidophilus in Milk fortified with MSM Day 14, initial start data ([…] MSM): 5.33 logs
Recovery of Lactobacillus acidophilus in Milk fortified with MSM Day 14, average recovery ([…] MSM, Day 14-24): 9.87 logs
Recovery of Lactobacillus acidophilus in Milk fortified with MSM Day 14, average recovery ([…] MSM, Day 14-48): 12.32 logs
Recovery of Lactobacillus acidophilus in Milk fortified with MSM Day 14, average recovery ([…] MSM, Day 14-72): 12.57 logs
Recovery of Lactobacillus acidophilus in Milk fortified with MSM Day 21, initial start data ([…] MSM): 3.47 logs
Recovery of Lactobacillus acidophilus in Milk fortified with MSM Day 21, average recovery ([…] MSM, Day 21-24): 10.79 logs
Recovery of Lactobacillus acidophilus in Milk fortified with MSM Day 21, average recovery ([…] MSM, Day 21-48): 12.78 logs
Recovery of Lactobacillus acidophilus in Milk fortified with MSM Day 21, average recovery ([…] MSM, Day 21-72): 13.10 logs
Recovery of Lactobacillus acidophilus in Milk fortified with MSM Day 28, initial start data ([…] MSM): 1.33 logs
Recovery of Lactobacillus acidophilus in Milk fortified with MSM Day 28, average recovery ([…] MSM, Day 28-24): 6.37 logs
Lag Recovery of Lactobacillus acidophilus in Milk fortified with MSM Day 28 ([…] MSM, Day 28-24): 6.37 logs
Recovery of Lactobacillus acidophilus in Milk fortified with MSM Day 28, average recovery ([…] MSM, Day 28-48): 12.57 logs
Recovery of Lactobacillus acidophilus in Milk fortified with MSM Day 28, average recovery ([…] MSM, Day 28-72): 12.66 logs
Day 7 log recovery growth rate increase from start time of zero ([…] MSM, Hour 0): 0.00 logs
Day 14 log recovery growth rate increase from start time of zero ([…] MSM, Hour 0): 0.00 logs
Day 21 log recovery growth rate increase from start time of zero ([…] MSM, Hour 0): 0.00 logs
Day 7 log recovery growth rate increase from start time of zero ([…] MSM, Hour 24): 4.66 logs
Day 14 log recovery growth rate increase from start time of zero ([…] MSM, Hour 24): 4.54 logs
Day 21 log recovery growth rate increase from start time of zero ([…] MSM, Hour 24): 7.32 logs
Day 7 log recovery growth rate increase from start time of zero ([…] MSM, Hour 48): −0.8 logs
Day 14 log recovery growth rate increase from start time of zero ([…] MSM, Hour 48): 2.45 logs
Day 21 log recovery growth rate increase from start time of zero ([…] MSM, Hour 48): 2.00 logs
Day 7 log recovery growth rate increase from start time of zero ([…] MSM, Hour 72): 0.25 logs
Day 14 log recovery growth rate increase from start time of zero ([…] MSM, Hour 72): 0.26 logs
Day 21 log recovery growth rate increase from start time of zero ([…] MSM, Hour 72): 0.32 logs
Day 28 log recovery growth rate increase from start time of zero ([…] MSM, Time 0): 0.00 logs
Day 28 log recovery growth rate increase from start time of zero ([…] MSM, Time 24): 5.04 logs
Day 28 log recovery growth rate increase from start time of zero ([…] MSM, Time 48): 6.20 logs
Day 28 log recovery growth rate increase from start time of zero ([…] MSM, Time 72): 0.09 logs
